pIC50: −log10 of the molar value.
Tests used:
Assay type in all cases: cell-based
[1] = molecular target: T1, MRGPRX2 (Homo sapiens, UniProt Q96LB1); experiment: MRGPRX2 FLIPR calcium mobilization assay; parameters: host or cells: CHO-K1; conditions: CHO-K1 cells stably expressing human MRGPRX2; Ca2+ release; agonist Cortistatin-14 at EC80
T1 sequence (Q96LB1 1-330): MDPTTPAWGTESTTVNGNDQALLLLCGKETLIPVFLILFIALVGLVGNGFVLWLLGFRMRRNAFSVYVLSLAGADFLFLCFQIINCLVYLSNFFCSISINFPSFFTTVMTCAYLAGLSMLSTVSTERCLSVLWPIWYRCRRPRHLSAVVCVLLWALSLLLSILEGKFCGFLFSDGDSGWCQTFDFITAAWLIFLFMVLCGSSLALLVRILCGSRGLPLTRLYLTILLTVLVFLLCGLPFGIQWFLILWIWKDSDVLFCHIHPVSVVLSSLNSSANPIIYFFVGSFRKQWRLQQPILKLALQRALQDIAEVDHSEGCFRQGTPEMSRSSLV
Procedure, shortened: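 CHO-K1 cells stably expressing the receptor, loaded with Calcium 6 dye, then preincubated 30 min at r.t. with compound in HBSS/20 mM HEPES pH 7.4. Cortistatin-14 at EC80 added; baseline-adjusted maximum RFU read over 110 s. IC50 from 3- or 4-parameter Hill fit.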

[2] = molecular target: T1, MRGPRX2; experiment: MRGPRX2 IP1 HTRF assay; parameters: host or cells: CHO-K1; conditions: CHO-K1 cells stably expressing human MRGPRX2; IP1 accumulation; agonist Cortistatin 14 1 μM
Procedure, shortened: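 CHO-K1 cells stably expressing human MRGPRX2, preincubated with compound 1 h at 37 °C, then stimulated with 1 μM Cortistatin 14 for 1 h. IP1 measured by HTRF against standard curve, normalized to DMSO and reference antagonist controls; IC50 from 3- or 4-parameter Hill fit.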

[3] = molecular target: T1, MRGPRX2; experiment: MRGPRX2 β-Arrestin recruitment assay (PathHunter); parameters: host or cells: CHO-K1 (PathHunter); conditions: PathHunter CHO-K1 MRGPRX2 β-Arrestin cell line; agonist Cortistatin 14 0.25 μM
Procedure, shortened: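 CHO-K1 PathHunter cells co-expressing ProLink-tagged MRGPRX2 and enzyme-acceptor-tagged β-arrestin were preincubated with compound 1 h at 37° C., then stimulated with cortistatin-14 (0.25 μM final) for 90 min. Enzyme-complementation luminescence read after 1 h detection; data normalized to DMSO and reference antagonist, IC50 from 3- or 4-parameter Hill fit.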

pIC50 [1] | pIC50 [2] | pIC50 [3] | SMILES
7.00 to 10.00 | 7.00 to 10.00 | 7.00 to 10.00 | CCc1cc(NCC2(c3ccc(F)cc3)CN(C(N)=O)C2)n2nc(C(F)(F)F)cc2n1 [Example 68, 3-(((5-Ethyl-2-(trifluoromethyl)pyrazolo[1,5-a]pyrimidin-7-yl)amino)methyl)-3-(4-fluorophenyl)azetidine-1-carboxamide]
7.00 to 10.00 | 6.00 to 7.00 | 6.00 to 7.00 | NS(=O)(=O)N1CC(CNc2cc(C(F)(F)F)nc3cc(C4CC4)nn23)(n2cccn2)C1 [Example 94, 3-(((2-Cyclopropyl-5-(trifluoromethyl)pyrazolo[1,5-a]pyrimidin-7-yl)amino)methyl)-3-(1H-pyrazol-1-yl)azetidine-1-sulfonamide]
7.00 to 10.00 | 7.00 to 10.00 | 7.00 to 10.00 | O=C(N[C@H]1CC[C@H](O)CC1)N1CC(CNc2cc(C(F)(F)F)nc3cc(Br)nn23)(c2ccc(F)cc2)C1 [Example 96, 3-(((2-Bromo-5-(trifluoromethyl)pyrazolo[1,5-a]pyrimidin-7-yl)amino)methyl)-3-(4-fluorophenyl)-N-((1r,4r)-4-hydroxycyclohexyl)azetidine-1-carboxamide]
7.00 to 10.00 | 7.00 to 10.00 | 7.00 to 10.00 | COc1cc(NCC2(c3ccc(F)cc3)CN(S(N)(=O)=O)C2)n2nc(C(F)(F)F)cc2n1 [Example 106, 3-(4-Fluorophenyl)-3-(((5-methoxy-2-(trifluoromethyl)pyrazolo[1,5-a]pyrimidin-7-yl)amino)methyl)azetidine-1-sulfonamide]
